Experimental data reported in publication PMC8661032, “Broad-Spectrum Antibacterial Peptide Kills Extracellular and Intracellular Bacteria Without Affecting Epithelialization” (Frontiers in Microbiology, 2021).
In brackets after ≈: the same amount, converted by molar mass. Like-named read-outs stand apart in the source and are kept apart here. Residues, ends and D or L forms follow the SMILES beside them.

Experiments:
[1] = system: E. coli; experiment: microbe, parasite or virus in culture
Protocol: (§1) Briefly, bacterial colonies from blood agar plates were suspended and grown in Cation-Adjusted Mueller-Hinton Broth (CAMHB, […] Ca^2+, […] Mg^2+). The bacterial suspension was adjusted to 0.5 McFarland standard (∼1 × 10^8 colony-forming units (CFU)/ml) and serial diluted 1:200 in CAMHB (∼5 × 10^5 CFU/mL). […] The suspension was plated out on blood agar plates to confirm the CFU/ml. Both the microtiter plates and the blood agar plates were incubated at 37°C for 24 h.

[2] = system: E. faecium; experiment: microbe, parasite or virus in culture
Protocol: as §1

[3] = system: E. coli K-12 MG1655; experiment: Resistance development assay (serial passage), E. coli; assay type: cell-based, Escherichia coli; conditions: serial passage at sub-MIC in CAMHB, 32 days
Source text: (§2) Bacteria (E. coli K-12 MG1655 and S. aureus ATCC 29213 and SO-SAU19-1) were serial passaged in CAMHB as described by [Silverman et al. (2001)] with some small modifications.

[4] = system: S. epidermidis MRSE (SO-SEP9-1); conditions: SO-SEP9-1, 24 h
Protocol: as §1

[5] = system: E. coli; experiment: Growth inhibition assay (OD600 over 24 h); assay type: cell-based, Escherichia coli; set-up: Reduction of viability E. coli (60 μg/ml): key to the marks not given beside the values; conditions: LB medium
Protocol: An overnight culture of Escherichia coli was diluted 1:100 in Luria-Bertani (LB) medium and allowed to grow until an optical density (OD) at 600 nm (OD600) of 0.06–0.1. APIM-peptides were prepared by serial dilution in Milli-Q H2O and kept at 4°C. Fresh LB medium (60 μl) was added to a flat-bottom microtiter plate. The bacterial suspension was diluted 1:100 in LB, and 75 μl of this suspension was added to the wells. Finally, 15 μl of APIM-peptide solution (to final concentrations 60, 120, and 240 μg/ml) or distilled water (positive control) was added to the wells, reaching a total volume of 150 μl per well. Data are presented only for the dose that separated the effect of the different peptides, i.e., 60 μg/ml. A blank sterile medium was used as negative control. The plates were incubated with shaking at 510 rpm at 37°C inside a plate reader (TECAN, Spark®), and OD was read every hour over a period of 24 h.
The MIC for E. coli in LB medium is higher than that in CAMHB; thus, concentrations higher than the MIC given in Table 2 are used in the growth inhibition and mutagenesis assays. […]
E. coli. Growth of E. coli in LB medium over 24 hours (Optical Density (OD) 600 nm) after addition
of APIM-peptide variants 1-5 (60 µg/mL) at time t=0 (see Table 2). Negative (-) control is no
bacteria added, positive (+) control is untreated bacteria.
highest inhibition of growth.
control (black filled line).

[6] = system: HEK293 cells
Protocol: HEK293 cells (6,000 cells/well) were seeded in 96-well microtiter plates. After 4 h, APIM-peptides (12–48 μg/ml) were added, and the cells were incubated without change of media for up to 4 days. Viability was measured using the 3-(4,5-dimethylthiazol-2-yl)-2,5-diphenyltetrazolium bromide (MTT) assay as described ([Gilljam et al., 2009]).
(1 picture or pasted object on this page, not shown here)

[7] = system: E. coli; experiment: Rifampicin (RifR) mutagenesis assay after UV-C; assay type: cell-based, Escherichia coli; conditions: 20 μg/ml peptide, UV-C 20 mJ/cm^2, RifR assay, relative to untreated control
Protocol: The rifampicin (Rif^R) mutagenesis assay was performed as described ([Nedal et al., 2020]). Briefly, an overnight culture of E. coli was diluted 1:1,000 and grown until an OD600 of 0.01. APIM-peptides (20 μg/ml) were added to LB media with glass beads (for uniform distribution of APIM-peptides) and incubated for 30 min at 37°C. The pellets were next collected, resuspended in 500 μl PBS, and exposed to UV-C (20 mJ/cm^2) in a six-well plate at 4°C. The unexposed bacteria (-UV) were otherwise handled exactly like the UV-exposed bacteria. Next, the cells were resuspended in LB media and incubated in a rotary shaker at 37°C at 250 rpm for 2 h before being harvested, diluted, and plated on LB with soft agar with and without rifampicin (100 μg/ml). Mutation frequency, Rif^R/10^8, is obtained as follows: (number of colonies on the rifampicin plate (Rif^R)/(number of colonies on LB plates without antibiotics), per milliliter of bacterial suspension. […]
mutagenesis in E. coli more efficiently than the other peptide variants.
Increase in mutation frequencies after treatment with UV-C (20 mJ/cm2) relative to spontaneous mutations frequencies using the RifR assay were determined. This increase is set to 100% for untreated control, and % reduction after addition of peptides 1-5 (20 μg/mL) are shown. Mean ± SD from three independent experiments. * p<0.05, ** p<0.005

[8] = system: A. baumannii; experiment: microbe, parasite or virus in culture
Protocol: as §1

[9] = system: E. cloacae; experiment: microbe, parasite or virus in culture; conditions: 24 h
Protocol: as §1

[10] = system: K. pneumoniae; experiment: microbe, parasite or virus in culture
Protocol: as §1

[11] = system: P. aeruginosa; experiment: microbe, parasite or virus in culture
Protocol: as §1

[12] = system: S. aureus; experiment: microbe, parasite or virus in culture
Protocol: as §1

[13] = system: HaCaT keratinocytes; assay type: cell-based, human; conditions: betatide 2 μg/ml, 3-mm gap, similar to the uninfected cells
Protocol: Bacterial growth was examined by plating of supernatants.
Epithelialization was calculated from the change in the area of the gaps over time using freehand or rectangular selections in the software Fiji ImageJ 1.52p (National Institutes of Health, United States).
=(AreaofgapinDay 1-Areaofgapineachconsecutiveday)/AreaofgapinDay 1

[14] = system: intracellular S. aureus ATCC 29213 in HaCaT cells; experiment: Intracellular infection model; assay type: cell-based, Staphylococcus aureus
Protocol: The intracellular infection model used was modified from [Iqbal et al. (2016)] by optimizing the number of multiplicity of infection (MOI: number of bacteria per cell) and time of infection. Briefly, HaCaT cells (6.5 × 10^4/well) were seeded in 24-well plates and incubated overnight in a medium without antibiotics. The next day, approximately 1.25 × 10^5 cells/well were infected with S. aureus at an MOI of 100 in antibiotic-free media. The plates were incubated for 3 h. […] After 16 h of incubation, the extracellular media (100 μl) from each well were plated to confirm the eradication of extracellular S. aureus. Next, the cells were washed 2× with 500 μl PBS before they were lysed with 0.2% Triton-X (500 μl) for 30 min at room temperature. The lysed samples were placed on ice, and 500 μl cold Tryptic Soy Broth was added before they were plated on blood agar plates.

[15] = system: bacteria; experiment: MIC comparisons between peptide variants (bacterium not stated); assay type: cell-based; conditions: betatide compared to ATX-101
[16] = system: HaCaT cells
[17] = system: Cpx mutant E. coli cells; conditions: Cpx mutant E. coli cells with constitutive active Cpx response; ref Frimodt-Moller et al., 2021; cited from earlier work
Source text: This, in turn, can reduce the fitness of the bacteria, similar to what has been shown for another peptide targeting the β-clamp called griselimycin.

[18] = system: S. aureus ATCC 29213 and SO-SAU19-1; assay type: cell-based, Staphylococcus aureus
Source text: as §2

CC1(C)S[C@@H]2[C@H](NC(=O)[C@H](N)c3ccccc3)C(=O)N2[C@H]1C(=O)O [Ampicillin, ampicillin]
MIC ([1]; Escherichia coli, MG1655, read-out: MIC in E. coli): 16 µg/mL (≈ 45.8 µM) | Combination effect with 0.5× MIC betatide ([2]; CCUG 59167 (vanA+), reduced MIC of antibiotic when combined with 0.5× MIC betatide): None | MIC ([2]; Enterococcus faecium, 24 h): 2050 µg/mL (≈ 5860 µM) | MIC ([2]; Enterococcus faecium, CCUG59167, 24 h): 1 µg/mL (≈ 2.86 µM) | Combination effect with 0.5× MIC betatide ([2]; SO-EFU19-1 (vanB+)): None | increase in MIC relative to day 1 [3]: ≤ 64 ×

CC[C@H](C)[C@H](NC(=O)CNC(=O)[C@H](CCCCN)NC(=O)[C@@H](NC(=O)[C@H](CC(C)C)NC(=O)[C@H](Cc1c[nH]c2ccccc12)NC(=O)[C@H](CCCNC(=N)N)NC(=O)[C@H](CC(=O)O)NC(=O)[C@H](CCSC)NC(C)=O)C(C)C)C(=O)N[C@@H](CC(C)C)C(=O)N[C@@H](CCC(N)=O)C(=O)N[C@@H](Cc1c[nH]c2ccccc12)C(=O)N[C@@H](CCCNC(=N)N)C(=O)N[C@@H](CCCCN)C(=O)N[C@H](C(=O)N[C@@H](CCCNC(=N)N)C(=O)N[C@@H](CCCNC(=N)N)C(=O)N[C@@H](CCCNC(=N)N)C(=O)N[C@@H](CCCNC(=N)N)C(=O)N[C@@H](CCCNC(=N)N)C(=O)N[C@@H](CCCNC(=N)N)C(=O)N[C@@H](CCCNC(=N)N)C(=O)N[C@@H](CCCNC(=N)N)C(=O)N[C@@H](CCCNC(=N)N)C(=O)N[C@@H](CCCNC(=N)N)C(=O)N[C@@H](CCCNC(=N)N)C(N)=O)[C@@H](C)CC [betatide] (Ac-MDRWLVKGILQWRKIRRRRRRRRRRR-NH2)
MIC S. epidermidis MRSE [4]: 16 µg/mL (≈ 4.32 µM) | MIC for MRSE in DMEM [4]: 0.25 µg/mL | inhibition of growth of E. coli (OD 600 nm) ([5]; 60 µg/mL, over 24 hours, Supplementary Figure S1): lowest OD after 8 hours | Reduction of viability E. coli (60 μg/ml) ([5]; 60 μg/ml peptide, OD600 every hour over 24 h, relative to untreated control): ++++ | Reduction of viability HEK293 (24 μg/ml) [6]: + | Reduction of mutation frequency E. coli (20 μg/ml) [7]: ++++ | MIC ([8]; 24 h): 8 µg/mL (≈ 2.16 µM) | MIC ([8]; Clinical isolate SO-ABA19-1 (ESBL-CARBA-D), CAMHB, 24 h, three independent experiments): 8 µg/mL (≈ 2.16 µM) | MIC [9]: 16 µg/mL (≈ 4.32 µM) | MIC ([1]; 24 h): 16 µg/mL (≈ 4.32 µM) | MIC ([1]; Clinical isolate SO-ECO19-1 (ESBL-CARB-A(CTX-M-24)/D(OXA-48)), CAMHB, 24 h, three independent experiments): 16 µg/mL (≈ 4.32 µM) | MIC E. coli ([1]; K-12 MG1655, CLSI broth microdilution, CAMHB, 37°C, 24 h, visible growth, net peptide concentration): 16 µg/mL (≈ 4.32 µM) | MIC ([2]; 24 h): 8 µg/mL (≈ 2.16 µM) | MIC ([10]; 24 h): 16 µg/mL (≈ 4.32 µM) | MIC ([11]; 24 h): 16 µg/mL (≈ 4.32 µM) | MIC ([12]; 24 h): 32 µg/mL (≈ 8.65 µM) | MIC ([12]; Clinical isolate SO-SAU19-1 (MRSA), CAMHB, 24 h, three independent experiments): 16 µg/mL (≈ 4.32 µM) | MIC ([12]; Reference strain ATCC 29213, CAMHB, 24 h, three independent experiments): 16 µg/mL (≈ 4.32 µM) | epithelialization of MRSE-infected HaCaT cells [13]: completed at day 4 | reduction in intracellular bacterial load ([14]; betatide 24 μg/ml for 16 h, MOI 100, 3 h infection, extracellular bacteria killed by gentamicin, compared to untreated control): 4 × | intracellular bacterial load (CFU) ([14]; concentrations of betatide lower than 24 μg/ml, 16 h): did not cause a significant reduction in CFU | reduction of MIC by changes in the linker region ([15]; from Table 2): ~2 × | reduction of MIC by amidation of the C-termini ([15]; unpublished data): ~4 × | concentration tolerated by uninfected HaCaT cells [16]: up to 40 μg/ml | increase in MIC [17]: 2 ×

CNC(C)C1CCC(N)C(OC2C(N)CC(N)C(OC3OCC(C)(O)C(NC)C3O)C2O)O1 (centres unmarked) [Gentamicin, gentamicin]
Combination effect with 0.5× MIC betatide ([8]; ATCC 19606): None | MIC ([8]; Acinetobacter baumannii, 24 h): > 1000 µg/mL | MIC ([8]; Acinetobacter baumannii, ATCC19606, 24 h): 8 µg/mL (≈ 16.8 µM) | MIC ([9]; Enterobacter cloacae): > 1000 µg/mL | MIC ([1]; Escherichia coli, 24 h): > 500 µg/mL | MIC ([1]; Escherichia coli, MG1655, 24 h): 0.5 µg/mL (≈ 1.05 µM) | Combination effect with 0.5× MIC betatide ([1]; MG1655): None | Combination effect with 0.5× MIC betatide ([10]; ATCC 13883): Additive 4× | MIC ([10]; Klebsiella pneumoniae, 24 h): 64 µg/mL (≈ 134 µM) | MIC ([10]; Klebsiella pneumoniae, ATCC13883, 24 h): 0.5 µg/mL (≈ 1.05 µM) | Combination effect with 0.5× MIC betatide ([10]; SO-KPN19-1 (ESBL-CARBA-D)): Additive 4× | Combination effect with 0.5× MIC betatide ([11]; ATCC 27853): None | MIC ([11]; Pseudomonas aeruginosa, 24 h): 16 µg/mL (≈ 33.5 µM) | MIC ([11]; Pseudomonas aeruginosa, ATCC27853, 24 h): 2 µg/mL (≈ 4.19 µM) | Combination effect with 0.5× MIC betatide ([11]; SO-PAE19-1 (multidrug resistant)): None | MIC ([12]; Staphylococcus aureus, ATCC29213, read-out: MIC in S. aureus ATCC 29213, ATCC 29213, values given in method text): 1 µg/mL (≈ 2.09 µM) | MIC ([12]; Staphylococcus aureus, ATCC29213, read-out: MIC in S. aureus, starting MIC of resistance development assay, CAMHB, strain not differentiated (ATCC 29213 and SO-SAU19-1)): 1 µg/mL | increase in MIC relative to day 1 ([18]; S. aureus ATCC 29213, serial passage, first experiment (parallel 1)): ≤ 256 × | increase in MIC relative to day 1 ([18]; S. aureus SO-SAU19-1 (MRSA), 20 passages): 8 ×
